From US5900231A, “Silicone-containing derivatives of salicylic acid which have desquamating properties” (L'Oreal, priority 1996, dated 1999)

What was measured:
[1] = solubility in MIGLYOL 812 (mixture of caprylic acid and capric acid triglyceride); type: physicochemical
Procedure: The solubility of the silicon-containing derivatives of salicylic acid according to the invention in organic media was evaluated by comparing the solubility of 5-n-octanoylsalicylic acid with inventive compounds:
in a mixture of caprylic acid and capric acid triglyceride, marketed under the name MIGLYOL 812 by the company Huls.

[2] = test system: keratinocytes; assay: in vitro test of the efficacy of the desquamation on keratinocytes (release of corneocytes, flow cytometry); type: cell-based; settings: for cell detachment index (difference between T60 and T0; release of corneocytes relative to control): 60 minutes after addition, relative to control without test product, equal concentrations; for desquamating activity compared with 5-n-octanoylsalicylic acid: at a concentration equal to that of 5-n-octanoylsalicylic acid
Procedure: An in vitro test of the efficacy of the desquamation was carried out on keratinocytes using 5-n-octanoylsalicylic acid (compound C1), 2-hydroxy4-(3-trimethylsilanylpropyloxy)benzoic acid (compound C2) and 2-hydroxy-5-(3-trimethylsilanylpropyloxy)benzoic acid (compound C3). C1 is a known powerful desquamating active agent, but not part of the present invention. C2 and C3 are compounds of the present invention.
The principle of the test rests on the fact that desquamation is known to induce the release of corneocytes. The desquamating power of the test product should be proportionately greater the larger the number of corneocytes released.
The test procedure was as follows: keratinocytes were obtained by separating the epidermis from skin biopsies, and these keratinocytes were dissociated by enzymatic action with trypsin and cultured at a concentration of 2×10^5 cells/ml. Growth and differentiation of the keratinocytes were obtained by culturing for 10 to 20 days in specific medium.
Next, after removing the culture medium, the test product was added and the activity of the product evaluated. To do this, two samples were taken at T0 and T60, i.e., before addition of the product and 60 minutes after this addition, and the samples thus taken were analysed on a flow cytometer to count the population of corneocytes.
The cell detachment index was determined by the difference between T60 and T0.
The same measurement was taken for a control containing no test product since the experiment inevitably produces the release of corneocytes, even in the absence of active agent. The variation of the control arbitrarily set the standard at 100%.

| SMILES | Solubility at room temperature [1] | cell detachment index (difference between T60 and T0; release of corneocytes relative to control) [2] | desquamating activity compared with 5-n-octanoylsalicylic acid [2] |
| --- | --- | --- | --- |
| CC(COc1ccc(C(=O)O)c(O)c1)C[Si](C)(O[Si](C)(C)C)O[Si](C)(C)C (stereo not shown) [Compound C4, 2-hydroxy-4-[2-methyl-3-[1,3,3,3-tetramethyl-1-[(trimethyl-silyl)oxy]disiloxanyl]propyloxy]benzoic acid] | 6% |  |  |
| CCCCCCCC(=O)c1ccc(O)c(C(=O)O)c1 [Compound C1, 5-n-octanoylsalicylic acid, reference compound] | < 1.5% | 103% |  |
| C[Si](C)(C)CCCOc1ccc(C(=O)O)c(O)c1 [Compound C2, 2-hydroxy-4-(3-trimethylsilanylpropyloxy)benzoic acid] | 2% | 157% | much more active than the latter |
| C[Si](C)(C)CCCOc1ccc(O)c(C(=O)O)c1 [Compound C3, 2-hydroxy-5-(3-trimethylsilanylpropyloxy)benzoic acid] | 7% | 135% | much more active than the latter |
| CC(Cc1cccc(C(=O)O)c1O)C[Si](C)(O[Si](C)(C)C)O[Si](C)(C)C (stereo not shown) [Compound C5, 2-hydroxy-3-[2-methyl-3-[1,3,3,3-tetramethyl-1-[(trimethylsilyl)oxy]disiloxanyl]propyl]benzoic acid] | > 20% |  |  |
